Assay results from patent publication US20020052295A1, “Diacyl derivatives of propylene diamine having herbicidal activity” (priority 1999, published 2002).

Experiments:
[1] = test system: PANMI; assay: Pre-emergence herbicidal activity on PANMI (wild proso millet); assay type: in vivo, Panicum miliaceum
How it was run: (§1)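 Surface-applied pre-emergence treatment (compound diluted in 1:1 acetone/water) onto seeded, soil-covered pots. Greenhouse 30/21 °C. Day ~14: % inhibition vs untreated → GR80.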

[2] = test system: ABUTH; assay: Post-emergence herbicidal activity on ABUTH (velvetleaf); assay type: in vivo, Abutilon theophrasti; settings: post-emergence spray; lowest tested rate with 80% or greater inhibition; about 14 days after treatment
How it was run: (§2)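 Post-emergence spray, 50:50 acetone:water, 3,100 l/ha, […]; plants 9–14 days after planting. Greenhouse 30/21° C day/night. Read ~14 days post-treatment: % inhibition vs unsprayed controls.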

[3] = test system: POROL; assay: Pre-emergence herbicidal activity on POROL (common purslane); assay type: in vivo, Portulaca oleracea
How it was run: as §1

[4] = test system: SORHA; assay: Post-emergence herbicidal activity on SORHA (johnsongrass, seedling); assay type: in vivo, Sorghum halepense; settings: post-emergence spray; lowest tested rate with 80% or greater inhibition; about 14 days after treatment
How it was run: as §2

[5] = test system: dicotyledonous species; assay: Pre-emergence test (later test), average GR80 on dicotyledonous species; assay type: in vivo; settings: average over dicotyledonous species
Source text: (§3) All such uses, and the biological activity enabling such uses, are embraced by the term “herbicidal” herein. Tables 15 and 16 summarize results of tests conducted as described below to determine the pre-emergence herbicidal activity, in the form of a GR80 value, of illustrative compounds of this invention. […] Where herbicidal activity was evident but 80% inhibition was not achieved at the highest rate tested (typically 1000 g/ha), an asterisk (*) is shown in the following tables. Herbicidal activity evident in the form of symptoms of phytotoxicity, in the absence of at least 80% inhibition at any rate, is indicated in the tables by “phyto”. A blank cell in the following tables indicates no herbicidal or phytotoxic response at any rate tested.
(§4) The pre-emergence tests were conducted by the following procedure. Topsoil was sieved to pass through a 1.27 cm screen. Fertilizer was added to the topsoil and the mixture was then sterilized by heating. The topsoil mixture was placed in a pot and compacted to a depth of 1.0 to 1.25 cm from the top of the pot. Seeds of each of several monocotyledonous and dicotyledonous annual plant species were placed on top of the soil. […]
(§5) Approximately 14 days after planting and treating, the plants were observed and herbicidal efficacy recorded as percent inhibition by comparison with untreated plants. […]

[6] = test system: SOLNI; assay: Post-emergence herbicidal activity on SOLNI (black nightshade); assay type: in vivo, Solanum nigrum; settings: post-emergence spray; lowest tested rate with 80% or greater inhibition; about 14 days after treatment
How it was run: as §2

[7] = test system: AMARE; assay: Pre-emergence herbicidal activity on AMARE (redroot pigweed); assay type: in vivo, Amaranthus retroflexus
How it was run: as §1

[8] = test system: SORHA; assay: Pre-emergence herbicidal activity on SORHA (johnsongrass, seedling); assay type: in vivo, Sorghum halepense
How it was run: as §1

[9] = test system: BRAPP; assay: Pre-emergence herbicidal activity on BRAPP (broadleaf signalgrass); assay type: in vivo, Brachiaria platyphylla
How it was run: as §1

[10] = test system: CONAR; assay: Post-emergence herbicidal activity on CONAR (field bindweed); assay type: in vivo, Convolvulus arvensis; settings: post-emergence spray; lowest tested rate with 80% or greater inhibition; about 14 days after treatment
How it was run: as §2

[11] = test system: PANDI; assay: Post-emergence herbicidal activity on PANDI (fall panicum); assay type: in vivo, Panicum dichotomiflorum; settings: post-emergence spray; lowest tested rate with 80% or greater inhibition; about 14 days after treatment
How it was run: as §2

[12] = test system: SOLNI; assay: Pre-emergence herbicidal activity on SOLNI (black nightshade); assay type: in vivo, Solanum nigrum
How it was run: as §1

[13] = test system: CHEAL; assay: Pre-emergence herbicidal activity on CHEAL (common lambsquarters); assay type: in vivo, Chenopodium album
How it was run: as §1

[14] = test system: AMARE; assay: Post-emergence herbicidal activity on AMARE (redroot pigweed); assay type: in vivo, Amaranthus retroflexus; settings: post-emergence spray; lowest tested rate with 80% or greater inhibition; about 14 days after treatment
How it was run: as §2

[15] = test system: monocotyledonous species; assay: Pre-emergence test (later test), GR80 on monocotyledonous species; assay type: in vivo; settings: average over monocotyledonous species
Source text: as §3, §4, §5

[16] = test system: SETFA; assay: Pre-emergence herbicidal activity on SETFA (giant foxtail); assay type: in vivo, Setaria faberi
How it was run: as §1

[17] = test system: DIGSA; assay: Post-emergence herbicidal activity on DIGSA (large crabgrass); assay type: in vivo, Digitaria sanguinalis; settings: post-emergence spray; lowest tested rate with 80% or greater inhibition; about 14 days after treatment
[18] = test system: DIGSA; assay: Pre-emergence herbicidal activity on DIGSA (large crabgrass); assay type: in vivo, Digitaria sanguinalis
How it was run: as §1

[19] = test system: SETFA; assay: Post-emergence herbicidal activity on SETFA (giant foxtail); assay type: in vivo, Setaria faberi; settings: post-emergence spray; lowest tested rate with 80% or greater inhibition; about 14 days after treatment
How it was run: as §2

[20] = test system: PANDI; assay: Pre-emergence herbicidal activity on PANDI (fall panicum); assay type: in vivo, Panicum dichotomiflorum
How it was run: as §1

[21] = test system: ECHCG; assay: Post-emergence herbicidal activity on ECHCG (barnyardgrass); assay type: in vivo, Echinochloa crus-galli; settings: post-emergence spray; lowest tested rate with 80% or greater inhibition; about 14 days after treatment
How it was run: as §2

[22] = test system: ABUTH; assay: Pre-emergence herbicidal activity on ABUTH (velvetleaf); assay type: in vivo, Abutilon theophrasti
How it was run: as §1

[23] = test system: SORVU; assay: Pre-emergence herbicidal activity on SORVU (shattercane); assay type: in vivo, Sorghum vulgare
How it was run: as §1

[24] = test system: POROL; assay: Post-emergence herbicidal activity on POROL (common purslane; table head prints PORAL); assay type: in vivo, Portulaca oleracea; settings: post-emergence spray; lowest tested rate with 80% or greater inhibition; about 14 days after treatment
How it was run: as §2

[25] = test system: BRAPP; assay: Post-emergence herbicidal activity on BRAPP (broadleaf signalgrass); assay type: in vivo, Brachiaria platyphylla; settings: post-emergence spray; lowest tested rate with 80% or greater inhibition; about 14 days after treatment
How it was run: as §2

[26] = test system: ECHCG; assay: Pre-emergence herbicidal activity on ECHCG (barnyardgrass); assay type: in vivo, Echinochloa crus-galli
How it was run: as §1

[27] = test system: PANMI; assay: Post-emergence herbicidal activity on PANMI (wild proso millet); assay type: in vivo, Panicum miliaceum; settings: post-emergence spray; lowest tested rate with 80% or greater inhibition; about 14 days after treatment
[28] = test system: SORVU; assay: Post-emergence herbicidal activity on SORVU (shattercane); assay type: in vivo, Sorghum vulgare; settings: post-emergence spray; lowest tested rate with 80% or greater inhibition; about 14 days after treatment
How it was run: as §2

[29] = test system: DATST; assay: Post-emergence herbicidal activity on DATST (jimsonweed); assay type: in vivo, Datura stramonium; settings: post-emergence spray; lowest tested rate with 80% or greater inhibition; about 14 days after treatment
How it was run: as §2

[30] = test system: CONAR; assay: Pre-emergence herbicidal activity on CONAR (field bindweed); assay type: in vivo, Convolvulus arvensis
How it was run: as §1

[31] = test system: CIRAR; assay: Pre-emergence herbicidal activity on CIRAR (canada thistle, seedling); assay type: in vivo, Cirsium arvense
How it was run: as §1

[32] = test system: DATST; assay: Pre-emergence herbicidal activity on DATST (jimsonweed); assay type: in vivo, Datura stramonium
How it was run: as §1

[33] = test system: CHEAL; assay: Post-emergence herbicidal activity on CHEAL (common lambsquarters); assay type: in vivo, Chenopodium album; settings: post-emergence spray; lowest tested rate with 80% or greater inhibition; about 14 days after treatment
How it was run: as §2

[34] = lowest tested rate giving 80% or greater inhibition, approx. 14 days after planting and treating, greenhouse
[35] = racemic mixture vs enantiomers test, rates tested 1000, 650, 300, 200, 100, 65, 30 and 10 g/ha, lowest rate with 80% or greater inhibition

## CC(CNC(=O)c1cccc(C(F)(F)F)c1)NC(=O)c1cccc(C(F)(F)F)c1 (stereo not shown) [Example 5, N,N′-(1,2-propanediylbis)-3-(trifluoromethyl)benzamide]
[1]; [34]
  Pre-emergence activity (GR80) on PANMI: phyto
[1]; [35]
  Pre-emergence activity (GR80) PANMI: 650 g/ha
[2]
  Post-emergence activity (GR80) ABUTH: 1000 g/ha
[3]; [34]
  Pre-emergence activity (GR80) on PORAL: 250 g/ha
[3]; [35]
  Pre-emergence activity (GR80) PORAL: 650 g/ha
[4]
  Post-emergence activity (GR80) SORHA: [empty]
[5]
  average pre-emergence GR80 on dicotyledonous species: 535 g/ha
[6]
  Post-emergence activity (GR80) SOLNI: 1000 g/ha
[7]; [34]
  Pre-emergence activity (GR80) on AMARE: 125 g/ha
[7]; [35]
  Pre-emergence activity (GR80) AMARE: 65 g/ha
[8]; [34]
  Pre-emergence activity (GR80) on SORHA: phyto
[8]; [35]
  Pre-emergence activity (GR80) SORHA: phyto
[9]; [34]
  Pre-emergence activity (GR80) on BRAPP: * (Where herbicidal activity was evident but 80% inhibition was not achieved at the highest rate tested (typically 1000 g/ha), an asterisk (*) is shown)
[9]; [35]
  Pre-emergence activity (GR80) BRAPP: phyto
[10]
  Post-emergence activity (GR80) CONAR: 750 g/ha
[11]
  Post-emergence activity (GR80) PANDI: [empty]
[12]; [34]
  Pre-emergence activity (GR80) on SOLNI: 750 g/ha
[12]; [35]
  Pre-emergence activity (GR80) SOLNI: 300 g/ha
[13]; [34]
  Pre-emergence activity (GR80) on CHEAL: 250 g/ha
[13]; [35]
  Pre-emergence activity (GR80) CHEAL: 100 g/ha
[14]
  Post-emergence activity (GR80) AMARE: 250 g/ha
[15]
  pre-emergence GR80 on monocotyledonous species: 1041 g/ha
[16]; [34]
  Pre-emergence activity (GR80) on SETFA: * (Where herbicidal activity was evident but 80% inhibition was not achieved at the highest rate tested (typically 1000 g/ha), an asterisk (*) is shown)
[16]; [35]
  Pre-emergence activity (GR80) SETFA: phyto
[17]
  Post-emergence activity (GR80) DIGSA: [empty]
[18]; [34]
  Pre-emergence activity (GR80) on DIGSA: 250 g/ha
[18]; [35]
  Pre-emergence activity (GR80) DIGSA: 200 g/ha
[19]
  Post-emergence activity (GR80) SETFA: [empty]
[20]; [34]
  Pre-emergence activity (GR80) on PANDI: 500 g/ha
[20]; [35]
  Pre-emergence activity (GR80) PANDI: 650 g/ha
[21]
  Post-emergence activity (GR80) ECHCG: [empty]
[22]; [34]
  Pre-emergence activity (GR80) on ABUTH: 1000 g/ha
[22]; [35]
  Pre-emergence activity (GR80) ABUTH: * (Where herbicidal activity was evident but 80% inhibition was not achieved at the highest rate tested (typically 1000 g/ha), an asterisk (*) is shown)
[23]; [34]
  Pre-emergence activity (GR80) on SORVU: phyto
[23]; [35]
  Pre-emergence activity (GR80) SORVU: phyto
[24]
  Post-emergence activity (GR80) PORAL: 750 g/ha
[25]
  Post-emergence activity (GR80) BRAPP: [empty]
[26]; [34]
  Pre-emergence activity (GR80) on ECHCG: phyto
[26]; [35]
  Pre-emergence activity (GR80) ECHCG: phyto
[27]
  Post-emergence activity (GR80) PANMI: [empty]
[28]
  Post-emergence activity (GR80) SORVU: [empty]
[29]
  Post-emergence activity (GR80) DATST: 125 g/ha
[30]; [34]
  Pre-emergence activity (GR80) on CONAR: phyto
[30]; [35]
  Pre-emergence activity (GR80) CONAR: phyto
[31]; [34]
  Pre-emergence activity (GR80) on CIRAR: 250 g/ha
[31]; [35]
  Pre-emergence activity (GR80) CIRAR: * (Where herbicidal activity was evident but 80% inhibition was not achieved at the highest rate tested (typically 1000 g/ha), an asterisk (*) is shown)
[32]; [34]
  Pre-emergence activity (GR80) on DATST: 500 g/ha
[32]; [35]
  Pre-emergence activity (GR80) DATST: 1000 g/ha
[33]
  Post-emergence activity (GR80) CHEAL: 500 g/ha
